Patent publication US20210308057A1, “PEDIATRIC FORMULATION OF TYROSINE KINASE INHIBITORS” (IGIA Pharmaceuticals, Inc., priority 2020, published 2021)

Key:
[1] = Stock solution stability (bioanalytical stock solutions); assay type: physicochemical; settings: polypropylene container
[2] = Nonclinical PK/PD study of low-dose dasatinib in NS and NSML mice for hypertrophic cardiomyopathy; settings: mouse, in vivo, doses 0.05 mg/kg to 0.5 mg/kg, based on exposure-response relationship, read-out: suggested potential target AUC for cardiac rescue
Experimental: A nonclinical study in mice was conducted to determine the PK and PD properties of a low-dose treatment of dasatinib in NS and NSML mice for the treatment of Hypertrophic cardiomyopathy (HCM). The goal was to establish in the same mouse model concurrent PK data and to correlate that with the endpoints of HCM using qPCR and immunoblotting. PK properties obtained from these mice were determined by Kana Mizuno and Alexander A. Vinks at Cincinnati Children's Hospital Medical Center. Dasatinib PK profiles and exposures (expressed as area under the concentration time curve; AUC) at doses ranging from 0.05 mg/kg to 0.5 mg/kg were estimated in NS and NSML mice. Based on the exposure-response relationship, potential target exposures to protect cardiac function were identified.

Stock Stability ([1]; storage temperature 22° C.) [h] | Stock Stability ([1]; storage temperature −20° C.) [h] | Compound | AUC [2] [µg·h/mL]
25 | 1010 | [2H]C1([2H])N(CCO)C([2H])([2H])C([2H])([2H])N(c2cc(Nc3ncc(C(=O)Nc4c(C)cccc4Cl)s3)nc(C)n2)C1([2H])[2H] [Dasatinib-D8] | –
25 | 1010 | Cc1nc(Nc2ncc(C(=O)Nc3c(C)cccc3Cl)s2)cc(N2CCN(CCO)CC2)n1 [Dasatinib] | 0.012 to 0.024
